Patent US10329542B2, “HBV RNAse H purification and enzyme inhibitors” (Saint Louis University, priority 2012, dated 2019)
pIC50: −log10 of the molar value.

Tests used:
HBV genotype D = assay: HBV replication inhibition in Huh7 cells, Southern blot, genotype D; assay type: cell-based, Hepatitis B virus; conditions: 10 μM
Experimental: Huh7 cells were maintained in Dulbecco's modified Eagle's medium with 10% fetal bovine serum at 37° C. in 5% CO2. Cells were seeded into 60 mm dishes and transfected at 70% confluency with 2.6 μg of plasmids using TransIT-LT1 (Mirus, Inc.). Test compounds were added the morning following transfection at 10 or 50 μM, and fresh medium containing the compounds was provided every 1-2 days. Four or five days post-transfection HBV cores were isolated by lysis of the cells in 10 mM Tris pH 7.5, 1 mM EDTA, 0.25% NP40, 50 mM NaCl, and 8% sucrose followed by sedimentation through a 30% sucrose cushion as described (Travis, et al., 1998). […] The nucleic acid samples were resolved by electrophoresis on 1.2% agarose gels and detected by Southern blotting with ^32P-labeled HBV DNA as a probe.
Finally, the inventors asked whether HBV RNAseH inhibitors could block HBV replication in culture. […] Replicate nucleic acid aliquots were mock treated or treated with DNAse-free E. coli RNAseH to destroy RNA:DNA heteroduplexes, and then HBV DNAs were detected by Southern blotting. […]
Inhibition of HBV replication by βTJ was measured as recently described (Tavis et al., 2013). […] The nucleic acids were resolved by electrophoresis on 1.2% agarose gels and HBV DNAs were detected by Southern blotting with ^32P-labeled double-stranded HBV DNA as a probe to detect both the plus- and minus-polarity HBV DNA strands. […]

[1] = target: T1, HBV genotype D RNAseH (HRHPL) (Hepatitis B virus genotype D subtype ayw, UniProt P03156, INS679M); conditions: Tavis et al., 2013; read-out: IC50 against the HBV RNAseH, previously reported; cited from earlier work
T1 construct: HRHPL contains HBV genotype D (Genbank V01460) polymerase residues 684-845; made in house; host or cells: E. coli BL21 codon+

HBV genotype A = conditions: 10 μM; Tavis et al., 2013; cited from earlier work

T1 sequence (P03156 680-832, added parts left off, stated change not applied): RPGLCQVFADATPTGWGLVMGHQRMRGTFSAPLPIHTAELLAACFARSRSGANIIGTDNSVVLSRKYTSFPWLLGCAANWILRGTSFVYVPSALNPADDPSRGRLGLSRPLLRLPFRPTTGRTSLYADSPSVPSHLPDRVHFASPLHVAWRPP

Question: With `NCc1ccc(-c2ccc(Cc3cc(=O)n(O)c4ncccc34)cc2)cc1` [Compound 12, napthyridinone] as the molecule, how does the “Inhibition of HBV replication, genotype D isolate” value (HBV genotype D) read?
Answer: Its value is “Very few of the most slowly-migrating double-stranded nucleic acids accumulated”.

Question: And the pIC50 [1]?
Answer: The pIC50 was 5.60.

Question: And the “Block of viral replication in Huh7 cells” value (HBV genotype A)?
Answer: Its value is about 93%.
